According to patent US9238039B2, “Pyrazolo[1,5-A]pyrimidines for antiviral treatment” (Gilead Sciences, Inc., priority 2010, dated 2016):

System: RSV strain A2
Assay: RSV antiviral cytoprotection assay in Hep2 cells (96-well and 384-well format, Cell TiterGlo read-out)
Assay type: cell-based, Respiratory Syncytial Virus (RSV)
Settings: human respiratory syncytial virus; for inhibition at 0.5 µM: HEp-2, 0.5 uM, RSV-induced cytopathic effect in Hep2 cells, calculated from fitted dose response curve, normalized to 0% and 100%; for EC50: HEp-2, RSV-induced cytopathic effects, Hep2 cells, class symbols

SMILES	EC50	inhibition at 0.5 µM
Cc1cn2nc([C@@H]3CCCCN3C(=O)c3ccccc3-c3ccccc3)cc2nc1N1CC[C@H](N)C1 [Compound 407]	0.1 to 100 nM	92%
Cc1cn2nc([C@@H]3CCCCN3C(=O)c3ccc(-c4cccnc4)cc3)cc2nc1N1CC[C@H](N)C1 [Compound 408]	101 to 1000 nM	59%
Cc1cn2nc([C@@H]3CCCCN3C(=O)c3ccccc3-c3cccnc3)cc2nc1N1CC[C@H](N)C1 [Compound 409]	0.1 to 100 nM	99%

Continued, in another order:

EC50	SMILES	inhibition at 0.5 µM
1000 to 10000 nM	Cc1cn2nc([C@@H]3CCCCN3C(=O)c3cc(-c4ccccc4)ccn3)cc2nc1N1CC[C@H](N)C1 [Compound 410]	–
101 to 1000 nM	Cc1cn2nc([C@@H]3CCCCN3C(=O)c3cccc(-c4cccnc4)c3)cc2nc1N1CC[C@H](N)C1 [Compound 411]	95%
0.1 to 100 nM	Cc1cn2nc([C@@H]3CCCCN3C(=O)c3ccccc3)cc2nc1N1CC[C@H](N)C1 [Compound 412]	100%
